According to patent publication US8975232B2, “Macrocyclic kinase inhibitors and uses thereof” (President and Fellows of Harvard College, priority 2010, dated 2015):
pIC50, pKd: −log10 of the molar value. Read-outs that look alike come from different tables or passages of the source.

Key:
Src kinase = Src kinase (Homo sapiens, UniProt P12931); assay: Z'-LYTE kinase assay (Invitrogen), Src; assay type: biochemical; set-up: full-length kinase in the Z-LYTE assay vs. kinase domain in the current study; purchased Millipore; conditions: Z'-LYTE; ATP near KM
Sequence of Src kinase (P12931 whole entry, the tested form may be a part): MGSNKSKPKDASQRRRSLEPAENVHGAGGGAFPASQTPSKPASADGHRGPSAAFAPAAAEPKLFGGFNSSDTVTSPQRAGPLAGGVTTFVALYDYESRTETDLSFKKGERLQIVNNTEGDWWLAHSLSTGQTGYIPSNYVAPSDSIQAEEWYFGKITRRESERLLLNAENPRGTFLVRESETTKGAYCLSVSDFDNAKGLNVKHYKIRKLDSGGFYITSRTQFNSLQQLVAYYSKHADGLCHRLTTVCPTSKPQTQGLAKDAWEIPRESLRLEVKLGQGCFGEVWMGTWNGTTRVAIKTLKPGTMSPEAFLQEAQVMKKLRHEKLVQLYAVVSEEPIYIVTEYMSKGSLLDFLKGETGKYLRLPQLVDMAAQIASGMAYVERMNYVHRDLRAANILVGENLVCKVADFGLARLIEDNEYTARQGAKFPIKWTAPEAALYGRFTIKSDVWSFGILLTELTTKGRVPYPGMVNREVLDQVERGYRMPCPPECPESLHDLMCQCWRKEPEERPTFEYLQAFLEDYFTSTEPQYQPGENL
Protocol: Nine macrocycles enriched in the Src selection (FIG. 5) and synthesized as described above were assayed in vitro for the ability to inhibit Src kinase activity. Kinase activity was assayed in the presence of varying concentrations of macrocycle using the FRET-based Z′-LYTE assay (Invitrogen).
Src IC50 determinations and single-point inhibition measurements were performed using Invitrogen's Z′-LYTE Tyr 02 assay kit according to the manufacturer's protocols. All kinase assays were performed at ATP concentrations near KM,ATP values, except where noted otherwise. Active human Src kinase was obtained from Millipore. For kinome profiling and IC50 determinations against non-Src kinases, compounds were submitted to Invitrogen's SelectScreen Kinase Profiling Service.

Src kinase domain = biological target: T1, Src kinase domain (Gallus gallus, UniProt P00523); assay: Fluorescence anisotropy binding assay; set-up: species or system chicken; conditions: fluorescein-labeled macrocycle, read-out: dissociation constant (KD)
T1 construct: chicken c-Src (residues 251-533 and residues 83-533); made in house
Protocol: The change in fluorescence anisotropy of fluorescein-labeled MC1, MC4 and MC9 at 518 nm upon excitation at 492 nm was monitored with a HORIBA Jobin Yvon FluoroMax-4 (Edison, N.J.) spectrofluorimeter. Kinase was titrated to 0.5 μM of the fluorescently labeled macrocycle in 100 mM Tris pH 8.0, 10 mM MgCl2 at 25° C. After equilibration, the increase in the fluorescence anisotropy of the fluorescently labeled ligand was recorded and fitted against a quadratic binding equation in Kaleidagraph (Synergy Software, Reading Pa.) to yield the dissociation constant KD.
To clarify the inhibitory mechanism of the compounds further, the binding affinity of fluorescently labeled MC1, MC4, and MC9 to Src kinase domain was determined in a fluorescence anisotropy assay (FIG. 21).

Src Thr338Ile = assay: Inhibition of Src gatekeeper mutant; assay type: biochemical, chicken
Excerpt: (§1) Kinase domain constructs of human c-Abl (residues 229-512), chicken c-Src (residues 251-533 and residues 83-533), murine Lck (residues 227-509), and human Hck (residues 166-445) were expressed as previously described (Seeliger, Young et al. 2005; Seeliger, Nagar et al. 2007; the entire contents of each of which are incorporated by reference herein). Mutations were introduced into chicken c-Src (residues 251-533) (T338I, C277Q, L297M) by site-directed mutagenesis and verified by DNA sequencing.
For the FRET-based endpoint assay, kinase assays were performed using Invitrogen's Z′-LYTE kinase assay using the Tyr 02 substrate peptide (based upon the optimal Abl substrate peptide […]) according to the manufacturer's instructions. Assays were performed at near KM ATP concentrations for full-length c-Src and full-length c-Src T338I-50 μM and 7 μM, respectively.

[1] = biological target: T2, Src83-533 (chicken c-Src 83-533) (Gallus gallus, UniProt P00523); assay: Kinase activity assay with longer Src construct including SH3 and SH2 domains; assay type: biochemical; conditions: Src wild-type construct containing SH3 and SH2 domains
T2 construct: the regulatory SH3 and SH2 domains (chicken c-Src 83-533); made in house
Excerpt: as §1
In vitro kinase inhibition assays were performed using either a continuous spectrophotometric assay or a FRET-based endpoint assay. […]
To address this discrepancy, the two major differences between the fluorescent peptide-based Z′-LYTE assay and the continuous spectrophotometric assay employed here were investigated: the kinase construct used (full-length kinase in the Z-LYTE assay vs. kinase domain in the current study) and the peptide identity and concentration (5 μM fluorescent Abl-optimal substrate peptide in the previous study vs. 100 μM Src-optimal substrate peptide in the current study). […] The IC50 values determined for MC1.2 and MC4.1 were close to the concentration of the kinase used in the assay and therefore these values only represent an upper estimate of the real potency of these compounds.

[2] = biological target: T3, Src kinase domain (chicken c-Src residues 251-533) (Gallus gallus, UniProt P00523); assay: Continuous spectrophotometric kinase activity assay; assay type: biochemical; conditions: Src kinase domain; 5 μM ATP, 100 μM Src optimal peptide
T3 construct: chicken c-Src (residues 251-533 and residues 83-533); made in house

NC(=O)[C@@H]1CCNC(=O)[C@H](CCCNC(=O)c2cnccn2)NC(=O)[C@H](CC2CCCCC2)NC(=O)[C@H](C/C=C/c2ccccc2)NC(=O)/C=C\C(=O)N1 [cis-A11-B8-C10-D7]
pIC50 (Src kinase): 4.60
pKd (Src kinase domain; 250 μM AMP-PNP): 4.90
pKd (Src kinase domain; no competitor): 5.44
lower potency against gatekeeper mutant than against Src wild-type (Src Thr338Ile): about 3 fold
pIC50 (Src Thr338Ile; Src Thr338Ile containing SH3 and SH2 domains): 6.00
pIC50 [1]: 6.41
pIC50 [2]: 4.16
